Measurements from paper PMC3325938, “Activity of Clinically Relevant Antimalarial Drugs on Plasmodium falciparum Mature Gametocytes in an ATP Bioluminescence “Transmission Blocking” Assay” (PLoS ONE, 2012).
Converted amounts (≈) assume the structure as drawn. Read-outs that look alike come from different tables or passages of the source.

What was measured:
[1] = Cytotoxicity, resazurin-based reductase assay; format: cell-based, human; settings: human, HepG2, 48 h exposure, resazurin, mean ± SD, 3–6 independent experiments
Protocol: (§1) Cells were grown and maintained in EMEM (Sigma-Aldrich) supplemented with 2 mM L-glutamine (Sigma-Aldrich) and 10% fetal calf serum (Perbio). […] For cytotoxicity experiments, cells were seeded onto 96-well clear bottom black plates coated with type I collagen (Biocoat, Becton Dickinson) at a cell density of 10000 cells/well.
(§2) The culture medium was as described above, but supplemented with 5% fetal calf serum. Following the 48 h exposure period, a 0.004% resazurin solution was prepared by adding 60 mL of Dulbecco's PBS to each resazurin tablet (VWR International). The tablet was allowed to dissolve by placing the container in a bath maintained at 37°C, protected from light, for approximately 30 minutes. Medium was removed and 200 µL of fresh culture medium and 50 µL of resazurin solution were added to each well. Plates were incubated for a further 1 ½ hours. Cytotoxicity is indicated by decreased reduction of resazurin to its fluorescent product resorufin. The fluorescence was stabilized at room temperature for 15 minutes protected from light. […] Percentages of inhibition were calculated relative to the control wells.

[2] = test system: P. falciparum mature gametocytes; test: Microscopic enumeration of gametocytes on Giemsa-stained smears; format: cell-based, Plasmodium falciparum; settings: read-out: IC50 gametocytes Microscopy examination
Protocol: 100 µl of the culture (day 15, HT 6%) were plated in each well with the appropriate dilution of drug. 48 h after, 10 µl of each well was used to prepare a thin blood film and stain it with Giemsa. The number of gametocytes per 10,000–15,000 RBCs were counted and compared to the control (no drug, 0.5% DMSO).

gametocytes [3] = test system: gametocytes; set-up: method as in PMID 17242150; settings: cited from earlier work
[4] = test system: P. falciparum asexual forms (3D7A); test: In vitro antiplasmodial activity on asexual stages (uptake of radiolabeled nucleic acid precursor), 3D7A; format: cell-based, Plasmodium falciparum; settings: read-out: IC50 Activity against asexual forms (3D7A)
Protocol: (§3) IC50 values were measured as previously reported but all of the tests were done with serum-free cultures (using AlbuMAX II)

gametocytes [5] = settings: cited from earlier work
[6] = test system: P. falciparum asexual forms (3D7HT-GFP); test: In vitro antiplasmodial activity on asexual stages (uptake of radiolabeled nucleic acid precursor), 3D7HT-GFP; format: cell-based, Plasmodium falciparum; settings: read-out: IC50 Activity against asexual forms (3D7HT-GFP)
Protocol: as §3

[7] = test system: P. falciparum stage IV–V gametocytes (3D7HT-GFP strain); test: microbe, parasite or virus in culture; format: cell-based, Plasmodium falciparum
Protocol: Once purified, gametocytes were counted using a Neubauer chamber. Gametocytes (5×10^4 gametocytes per well) were transferred to a 96-well plate in a final volume of 100 µL, and dilutions of each drug were added (final DMSO concentration 0.5%). Plates were incubated (at 37°C in a 5% CO2 humidified incubator) for 48 h. The ATP level of each well was determined using the BacTiter-Glo™ reagent (Promega) according to manufacturer's recommendations. The BacTiter-Glo™ assay generates a “glow-type” luminescent signal produced by the luciferase reaction, which consists of mono-oxygenation of luciferin catalyzed by luciferase in the presence of Mg2+, ATP, and molecular oxygen.

HepG2 cells = test: Cytotoxicity, resazurin-based reductase assay; format: cell-based, human
Protocol: as §1, §2

gametocytes [8] = test system: gametocytes; set-up: method as in PMID 21316401; settings: at 1 µM; cited from earlier work
late gametocytes = test system: late gametocytes; set-up: method as in PMID 20149239; settings: flow cytometry assay; cited from earlier work
[9] = Plasmodium falciparum, mature gametocytes, 48 h incubation, Giemsa smear counting
[10] = Plasmodium falciparum, mean ± SD, 3–6 independent experiments, serum-free (AlbuMAX II)
[11] = Plasmodium falciparum, 48 h, read-out: IC50 Activity against mature gametocytes IV–V, ATP bioluminescence, 48 h, 3D7HT-GFP, mean ± SD, 3–6 independent experiments
[12] = Plasmodium falciparum, 48 h, read-out: IC50 gametocytes ATP method, mature gametocytes, 48 h drug exposure (Table 1)

In the case of C[C@H]1[C@H](OC(=O)CCC(=O)O)O[C@@H]2O[C@@]3(C)CC[C@H]4[C@H](C)CC[C@@H]1[C@@]24OO3 [Artesunate], the IC50 at 48 h ([1]; HepG2 cells) is given as greater than 50000 nM, the IC50 [2, 9] is given as 2260 nM and the IC50 (gametocytes [3]) is given as 108 nM. The IC50 [4, 10] was 37 ± 25 nM, the IC50 on gametocytes (gametocytes [5]) was 0.1 ng/mL (≈ 0.26 nM) and the IC50 ([6]; Plasmodium falciparum) was 54 ± 30 nM. It also gave an IC50 [7, 11] of 10800 ± 3700 nM and an IC50 [7, 12] of 10800 nM.

In the case of O=C1C(O)=C([C@H]2CC[C@H](c3ccc(Cl)cc3)CC2)C(=O)c2ccccc21 [Atovaquone], the IC50 at 48 h ([1]; HepG2 cells) is reported as greater than 40000 nM, the “cytotoxic effects (in words)” value (HepG2 cells; at the maximum solubility in culture media) is reported as “No cytotoxic effects were detected” and the IC50 [4, 10] is reported as 0.7 ± 0.4 nM. The IC50 ([6]; Plasmodium falciparum) was 1.8 ± 0.2 nM and the IC50 [7, 11] was 16100 ± 2120 nM.

CC[C@H]1OC(=O)[C@H](C)[C@@H](O[C@H]2C[C@@](C)(OC)[C@@H](O)[C@H](C)O2)[C@H](C)[C@@H](O[C@@H]2O[C@H](C)C[C@H](N(C)C)[C@H]2O)[C@](C)(O)C[C@@H](C)CN(C)[C@H](C)[C@@H](O)[C@]1(C)O [Azythromycin] gave an IC50 at 48 h ([1]; HepG2 cells) greater than 50000 nM, an IC50 ([4]; Plasmodium falciparum) greater than 10000 nM and an IC50 ([6]; Plasmodium falciparum) greater than 10000 nM. The IC50 [7, 11] was 28400 ± 640 nM.

With CCN(CC)CCCC(C)Nc1ccnc2cc(Cl)ccc12 (stereo not drawn) [Chloroquine] the IC50 ([2]; Plasmodium falciparum, 48 h) was 28400 nM, the IC50 ([4]; Plasmodium falciparum) was 6 ± 0.2 nM and the IC50 ([6]; Plasmodium falciparum) was 7 ± 2 nM. It also gave an IC50 [7, 11] of 23500 ± 2660 nM and an IC50 [7, 12] of 23500 nM.

For C[C@@H]1C[C@@H]([C@H](O)CC2CC(=O)NC(=O)C2)C(=O)[C@@H](C)C1 [Cycloheximide], the IC50 at 48 h [1] was 2950 ± 350 nM, the IC50 ([4]; Plasmodium falciparum) was 198 ± 1.7 nM and the IC50 ([6]; Plasmodium falciparum) was 194 ± 7.7 nM. For the same compound, the IC50 ([7]; Plasmodium falciparum, 48 h, read-out: IC50 Activity against mature gametocytes IV–V) was 6230 ± 2460 nM.

Work on C[C@H]1[C@@H](O)O[C@@H]2O[C@@]3(C)CC[C@H]4[C@H](C)CC[C@@H]1[C@@]24OO3 [Dihydroartemisinin] yielded an IC50 at 48 h ([1]; HepG2 cells) greater than 50000 nM, an IC50 [2, 9] of 2470 nM and an IC50 [4, 10] of 2.8 ± 0.7 nM. The inhibition of gametocytes (gametocytes [8]) was 70.4%, the IC50 ([6]; Plasmodium falciparum) was 13 ± 3 nM and the IC50 [7, 11] was 3560 ± 950 nM. For the same compound, the IC50 [7, 12] was 3560 nM.

For CC[C@H](C)[C@H](NC(=O)[C@H]([C@@H](C)CC)N(C)C(C)=O)C(=O)N[C@H](C(=O)N[C@@H](CC(C)C)C(=O)[C@@]1(C)CO1)[C@@H](C)O [Epoxomicin], the IC50 (HepG2 cells; HepG2, 48 h exposure, resazurin, mean ± SD, 3–6 independent experiments) was 3 ± 0.5 nM, the IC50 ([2]; mature gametocytes, 48 h incubation, Giemsa smear counting) was 5.2 nM and the IC50 [4] was 8 ± 1 nM. It also gave an IC50 ([6]; mean ± SD, 3–6 independent experiments, serum-free (AlbuMAX II)) of 9.8 ± 1.7 nM, an IC50 ([7]; ATP bioluminescence, 48 h, 3D7HT-GFP, mean ± SD, 3–6 independent experiments, read-out: IC50 Activity against mature gametocytes IV–V) of 0.42 ± 0.11 nM and an IC50 ([7]; mature gametocytes, 48 h drug exposure (Table 1), read-out: IC50 gametocytes ATP method) of 0.42 nM.

With CCCCN(CCCC)CCC(O)c1cc2c(Cl)cc(Cl)cc2c2cc(C(F)(F)F)ccc12 (stereo not drawn) [Halofantrine] the IC50 at 48 h ([1]; HepG2 cells) was greater than 50000 nM, the IC50 [4, 10] was 1.1 ± 0.5 nM and the IC50 ([6]; Plasmodium falciparum) was 1.2 ± 0.5 nM. For the same compound, the IC50 [7, 11] was 6700 ± 420 nM.

Work on CCN(CC)Cc1ccc(Nc2ccnc3cc(Cl)ccc23)cc1O [Isoquine] yielded an IC50 at 48 h ([1]; HepG2 cells) of 17100 ± 6300 nM, an IC50 [4, 10] of 9 ± 1.6 nM and an IC50 ([6]; Plasmodium falciparum) of 4.4 ± 3.2 nM. It also gave an IC50 [7, 11] of 28500 ± 2120 nM.

Compound CCCCN(CCCC)CC(O)c1cc(Cl)cc2c1-c1ccc(Cl)cc1/C2=C/c1ccc(Cl)cc1 (stereo not drawn) [Lumefantrine] has an IC50 at 48 h ([1]; HepG2 cells) greater than 50000 nM, an IC50 [4, 10] of 3.2 ± 0.14 nM and an IC50 ([6]; Plasmodium falciparum) of 1.65 ± 0.07 nM. It also gave an IC50 [7, 11] greater than 50000 nM.

With OC(c1cc(C(F)(F)F)nc2c(C(F)(F)F)cccc12)C1CCCCN1 (stereo not drawn) [Mefloquine] the IC50 at 48 h ([1]; HepG2 cells) was 11000 ± 260 nM, the “selectivity ratio (IC50 in HepG2 cells / IC50 in P. falciparum gametocytes)” value (HepG2 cells; HepG2 versus mature gametocytes) was 2.34 and the IC50 [4, 10] was 26 ± 17 nM. It also gave an IC50 ([6]; Plasmodium falciparum) of 28 ± 1.4 nM, an IC50 [7, 11] of 4900 nM and an IC50 ([7]; read-out: IC50 Activity against mature gametocytes IV–V, ATP bioluminescence, 48 h, 3D7HT-GFP, mean ± SD, 3–6 independent experiments) of 4700 ± 2100 nM.

With CN(C)c1ccc2nc3ccc(=[N+](C)C)cc-3sc2c1 [Methylene blue] the IC50 at 48 h ([1]; HepG2 cells) was 6520 ± 1310 nM, the IC50 [2, 9] was 760 nM and the IC50 [4, 10] was 11 ± 8 nM. The IC50 ([6]; Plasmodium falciparum) was 10 ± 1.8 nM, the IC50 [7, 11] was 490 ± 160 nM and the IC50 [7, 12] was 490 nM.

In the case of COc1cc(NC(C)CCCN)c2ncccc2c1 (stereo not drawn) [Primaquine], the IC50 at 48 h [1] is reported as greater than 50000 nM, the IC50 [2, 9] is reported as 87900 nM and the IC50 [4, 10] is reported as greater than 10000 nM. The IC50 ([6]; Plasmodium falciparum) was greater than 10000 nM, the IC50 [7, 11] was 20900 ± 4650 nM and the IC50 [7, 12] was 20900 nM.

In the case of CCc1nc(N)nc(N)c1-c1ccc(Cl)cc1 [Pyrimethamine], the IC50 at 48 h ([1]; HepG2 cells) is reported as greater than 50000 nM, the IC50 ([6]; Plasmodium falciparum) is reported as 33700 ± 6720 nM and the “effect on mature gametocytes (in words)” value ([7]; 3D7HT-GFP line resistant to drugs acting on DHFR) is reported as “did not have any effect”. The IC50 [7, 11] was greater than 50000 nM.

In the case of COc1ccc2nc3cc(Cl)ccc3c(Nc3cc(CN4CCCC4)c(O)c(CN4CCCC4)c3)c2n1 [Pyronaridine], the IC50 at 48 h ([1]; HepG2 cells) is reported as 5950 ± 920 nM, the IC50 [4, 10] is reported as 4.5 ± 1.5 nM and the IC50 ([6]; Plasmodium falciparum) is reported as 0.8 ± 0.1 nM. The IC50 [7, 11] was roughly 3250 nM.

Compound C=C[C@H]1C[N@@]2CC[C@H]1C[C@H]2[C@H](O)c1ccnc2ccc(OC)cc12 [Quinine] has an IC50 at 48 h ([1]; HepG2 cells) greater than 50000 nM, an IC50 [4, 10] of 66 ± 18 nM and an IC50 ([6]; Plasmodium falciparum) of 106 ± 40 nM.

In the case of C[C@@H]1CC[C@H]2[C@@H](C)C(=O)O[C@@H]3O[C@@]4(C)CC[C@@H]1[C@]32OO4 [artemisinin], the IC50 (late gametocytes) is listed as 1000 nM.
